These results are taken from ChEMBL document CHEMBL5360611, “Mycobacterium tuberculosis PptT Inhibitors Based on Heterocyclic Replacements of Amidinoureas” (ACS Med Chem Lett, 2023).

The structures appear in SMILES notation. In brackets after ≈: the same amount, converted by molar mass.

For data set [1], the system named is Mycobacterium tuberculosis. The data set is described as follows: Antimycobacterial activity against Mycobacterium tuberculosis H37Rv assessed as bacterial growth inhibition. The class given is functional.
For data set [2], the target named is T1, 4'-phosphopantetheinyl transferase PptT (Mycobacterium tuberculosis, UniProt O33336).
T1 sequence (O33336 whole entry): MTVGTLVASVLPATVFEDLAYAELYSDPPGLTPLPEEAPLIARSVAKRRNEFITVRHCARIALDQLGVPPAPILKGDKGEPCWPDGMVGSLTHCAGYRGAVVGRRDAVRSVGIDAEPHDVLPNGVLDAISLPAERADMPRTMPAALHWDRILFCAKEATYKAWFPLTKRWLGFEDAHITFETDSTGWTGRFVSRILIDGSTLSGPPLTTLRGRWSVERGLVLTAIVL
Description: Inhibition of Mycobacterium tuberculosis H37Rv PptT by BpsA-coupled assay.

Data set [3] deals with T1, 4'-phosphopantetheinyl transferase PptT. Description: Inhibition of Mycobacterium tuberculosis H37Rv PptT by fluorescence polarization assay.
For data set [4] the target is unchanged. The data set is described as follows: Inhibition of his-tagged Mycobacterium tuberculosis PptT expressed in Escherichia coli BL21 cells by BpsA-coupled assay.
The target is the same in data set [5]. The data set is described as follows: Inhibition of Mycobacterium tuberculosis PptT by fluorescence polarization assay.
The nature of data set [6]: Permeability of compound in human Caco-2 cells. It is filed as ADME, cell-based. The following applies: read-out: permeability.
The nature of data set [7]: Cytotoxicity against human HepG2 cells. It is filed as toxicity, cell-based. The note with it: read-out: TC50 (the source's name).
Data set [8] can be described thus: Cytotoxicity against human THP-1 cells. The class given is toxicity, cell-based. The following applies: read-out: TC50 (the source's name).
A short description of data set [9]: Lipophilicity, logD of compound at pH 7.4. It is filed as physicochemical. The note with it: buffer.
Data set [10] is described as follows: Solubility of compound. It is filed as physicochemical.
Data set [11] addresses Voltage-gated inwardly rectifying potassium channel KCNH2 (Homo sapiens, UniProt Q12809). The data set is described as follows: Inhibition of hERG transfected in HEK cells by automatic patch clamp analysis. It is filed as toxicity, cell-based.
Data set [12] deals with Voltage-dependent L-type calcium channel subunit alpha-1C (Homo sapiens, UniProt Q13936). Description: Inhibition of human Cav1.2 cardiac ion channel transfected in HEK cells by automatic patch clamp analysis. It is filed as toxicity, cell-based.
Data set [13] has as its target Sodium channel protein type 5 subunit alpha (Homo sapiens, UniProt Q14524). Description: Inhibition of human Nav1.5 channel ion channel transfected in HEK cells by automatic patch clamp analysis. It is filed as toxicity, cell-based.

Chain of Sodium channel protein type 5 subunit alpha (Q14524 whole entry): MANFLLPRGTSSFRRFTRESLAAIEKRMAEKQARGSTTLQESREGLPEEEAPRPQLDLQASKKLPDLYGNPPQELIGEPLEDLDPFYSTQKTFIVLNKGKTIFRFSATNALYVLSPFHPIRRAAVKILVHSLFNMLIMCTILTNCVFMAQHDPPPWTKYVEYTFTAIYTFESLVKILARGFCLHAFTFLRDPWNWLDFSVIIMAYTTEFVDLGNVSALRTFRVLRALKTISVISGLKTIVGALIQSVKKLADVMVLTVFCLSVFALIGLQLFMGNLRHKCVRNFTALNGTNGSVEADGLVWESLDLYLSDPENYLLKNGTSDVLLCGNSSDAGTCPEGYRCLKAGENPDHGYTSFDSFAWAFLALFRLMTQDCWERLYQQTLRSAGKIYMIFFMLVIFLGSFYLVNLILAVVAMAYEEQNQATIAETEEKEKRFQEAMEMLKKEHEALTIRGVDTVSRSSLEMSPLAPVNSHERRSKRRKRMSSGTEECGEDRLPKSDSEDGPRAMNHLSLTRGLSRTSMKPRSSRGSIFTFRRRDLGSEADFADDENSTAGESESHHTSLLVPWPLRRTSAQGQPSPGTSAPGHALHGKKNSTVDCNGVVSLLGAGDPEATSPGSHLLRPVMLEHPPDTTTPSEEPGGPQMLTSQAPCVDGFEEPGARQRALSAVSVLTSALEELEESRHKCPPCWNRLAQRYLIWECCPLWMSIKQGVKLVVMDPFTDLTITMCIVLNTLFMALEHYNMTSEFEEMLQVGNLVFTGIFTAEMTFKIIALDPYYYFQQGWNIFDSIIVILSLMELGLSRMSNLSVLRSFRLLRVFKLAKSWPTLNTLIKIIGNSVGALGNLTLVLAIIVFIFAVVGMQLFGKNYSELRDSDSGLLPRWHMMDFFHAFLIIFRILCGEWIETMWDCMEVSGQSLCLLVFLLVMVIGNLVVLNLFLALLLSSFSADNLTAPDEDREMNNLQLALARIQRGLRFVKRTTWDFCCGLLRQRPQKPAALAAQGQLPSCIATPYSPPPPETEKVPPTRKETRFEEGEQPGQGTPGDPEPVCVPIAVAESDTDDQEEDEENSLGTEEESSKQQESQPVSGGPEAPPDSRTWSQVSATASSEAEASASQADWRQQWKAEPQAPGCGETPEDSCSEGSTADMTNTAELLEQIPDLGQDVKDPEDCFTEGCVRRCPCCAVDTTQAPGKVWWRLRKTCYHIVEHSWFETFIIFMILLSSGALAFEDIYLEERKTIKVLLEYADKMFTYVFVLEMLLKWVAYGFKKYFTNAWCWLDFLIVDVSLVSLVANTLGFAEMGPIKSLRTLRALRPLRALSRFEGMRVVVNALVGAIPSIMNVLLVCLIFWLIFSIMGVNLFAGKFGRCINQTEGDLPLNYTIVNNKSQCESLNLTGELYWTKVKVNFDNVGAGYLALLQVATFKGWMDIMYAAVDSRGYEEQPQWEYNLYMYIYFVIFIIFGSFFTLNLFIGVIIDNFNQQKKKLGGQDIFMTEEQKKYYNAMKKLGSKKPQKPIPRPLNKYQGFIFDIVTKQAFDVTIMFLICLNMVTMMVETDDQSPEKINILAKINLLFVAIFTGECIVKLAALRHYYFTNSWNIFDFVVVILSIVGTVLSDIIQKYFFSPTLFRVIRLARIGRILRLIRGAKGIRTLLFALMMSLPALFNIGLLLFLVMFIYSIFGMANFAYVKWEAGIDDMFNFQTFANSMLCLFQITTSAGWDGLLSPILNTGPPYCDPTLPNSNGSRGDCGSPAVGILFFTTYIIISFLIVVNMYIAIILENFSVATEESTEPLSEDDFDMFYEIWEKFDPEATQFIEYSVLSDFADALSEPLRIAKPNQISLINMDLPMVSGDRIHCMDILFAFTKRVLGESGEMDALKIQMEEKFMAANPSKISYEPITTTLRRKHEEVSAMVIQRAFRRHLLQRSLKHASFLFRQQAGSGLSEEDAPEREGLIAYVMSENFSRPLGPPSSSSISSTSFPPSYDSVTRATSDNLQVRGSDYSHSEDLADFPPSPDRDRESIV
Chain of Voltage-dependent L-type calcium channel subunit alpha-1C (Q13936 whole entry): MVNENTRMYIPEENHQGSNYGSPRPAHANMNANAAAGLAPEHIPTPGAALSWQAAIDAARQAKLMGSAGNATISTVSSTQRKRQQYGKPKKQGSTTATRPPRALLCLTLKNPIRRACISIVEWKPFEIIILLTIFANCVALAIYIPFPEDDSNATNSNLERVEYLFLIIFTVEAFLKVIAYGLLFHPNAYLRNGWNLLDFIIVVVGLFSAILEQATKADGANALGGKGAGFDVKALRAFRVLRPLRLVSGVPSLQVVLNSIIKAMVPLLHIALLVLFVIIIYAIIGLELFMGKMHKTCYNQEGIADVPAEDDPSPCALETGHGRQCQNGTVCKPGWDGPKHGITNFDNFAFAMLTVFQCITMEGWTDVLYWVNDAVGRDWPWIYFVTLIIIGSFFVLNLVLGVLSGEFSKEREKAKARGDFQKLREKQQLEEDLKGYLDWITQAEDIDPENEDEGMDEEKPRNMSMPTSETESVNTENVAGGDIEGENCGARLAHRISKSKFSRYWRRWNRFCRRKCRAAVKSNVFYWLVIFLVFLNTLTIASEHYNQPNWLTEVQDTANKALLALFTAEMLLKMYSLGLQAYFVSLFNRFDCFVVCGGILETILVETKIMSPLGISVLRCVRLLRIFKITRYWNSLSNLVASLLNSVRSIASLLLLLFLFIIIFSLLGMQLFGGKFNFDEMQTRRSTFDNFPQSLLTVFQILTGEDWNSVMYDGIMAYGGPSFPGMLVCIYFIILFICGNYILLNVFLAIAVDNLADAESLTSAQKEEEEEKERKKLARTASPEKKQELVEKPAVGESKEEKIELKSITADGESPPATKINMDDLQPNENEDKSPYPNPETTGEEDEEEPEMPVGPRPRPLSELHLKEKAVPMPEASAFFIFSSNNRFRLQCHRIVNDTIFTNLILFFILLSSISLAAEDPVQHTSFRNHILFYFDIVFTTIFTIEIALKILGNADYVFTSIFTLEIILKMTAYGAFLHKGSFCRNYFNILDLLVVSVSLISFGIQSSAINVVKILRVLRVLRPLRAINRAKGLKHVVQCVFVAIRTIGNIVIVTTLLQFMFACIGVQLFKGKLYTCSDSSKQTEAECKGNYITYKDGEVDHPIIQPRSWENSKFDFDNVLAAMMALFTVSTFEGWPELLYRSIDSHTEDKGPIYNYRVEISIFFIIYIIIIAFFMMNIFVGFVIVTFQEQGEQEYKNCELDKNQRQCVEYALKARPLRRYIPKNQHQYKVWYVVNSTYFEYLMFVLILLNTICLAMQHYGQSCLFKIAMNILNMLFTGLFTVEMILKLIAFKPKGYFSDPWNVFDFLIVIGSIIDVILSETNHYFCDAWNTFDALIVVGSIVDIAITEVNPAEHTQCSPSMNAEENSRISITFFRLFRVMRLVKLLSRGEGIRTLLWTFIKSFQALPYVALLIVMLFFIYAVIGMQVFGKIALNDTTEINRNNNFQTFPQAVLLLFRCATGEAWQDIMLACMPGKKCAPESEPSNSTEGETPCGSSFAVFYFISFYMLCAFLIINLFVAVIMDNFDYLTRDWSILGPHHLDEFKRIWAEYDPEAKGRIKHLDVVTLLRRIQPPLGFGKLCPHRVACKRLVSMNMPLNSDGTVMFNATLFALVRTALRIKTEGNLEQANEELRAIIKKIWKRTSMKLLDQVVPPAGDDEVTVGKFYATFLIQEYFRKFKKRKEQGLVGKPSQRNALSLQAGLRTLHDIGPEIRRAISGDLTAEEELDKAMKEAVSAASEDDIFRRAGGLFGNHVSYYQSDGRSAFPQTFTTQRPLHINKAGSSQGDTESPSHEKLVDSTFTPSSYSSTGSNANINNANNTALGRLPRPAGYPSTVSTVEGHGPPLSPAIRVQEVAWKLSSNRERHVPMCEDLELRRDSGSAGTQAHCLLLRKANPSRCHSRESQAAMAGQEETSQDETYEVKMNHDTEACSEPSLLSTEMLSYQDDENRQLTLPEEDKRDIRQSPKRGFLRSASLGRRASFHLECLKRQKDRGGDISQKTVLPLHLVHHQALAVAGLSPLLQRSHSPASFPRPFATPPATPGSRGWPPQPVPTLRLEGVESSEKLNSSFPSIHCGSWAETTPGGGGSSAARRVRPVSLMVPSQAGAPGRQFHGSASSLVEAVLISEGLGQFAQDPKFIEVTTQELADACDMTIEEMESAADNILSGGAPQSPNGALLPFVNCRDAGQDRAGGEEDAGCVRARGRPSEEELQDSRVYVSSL

With `CCNc1nc(Nc2c(CC)cccc2CC)ccc1OC`, the MIC90 in data set [1] is 62 µM (≈ 18.6 µg/mL). For the same molecule, the IC50 was 87 µM in data set [2] and more than 100 µM in [3].

For the molecule `CCc1cccc(CC)c1Nc1cccc(NCC(C)C)n1`, the MIC90 in [1] was determined as 17 µM (≈ 5.06 µg/mL). Also, the IC50 in [2] and in [3] was more than 100 µM each time.

`CCc1cccc(CC)c1/N=C1\CN(CC)C(=N)N1` registered an IC50 in data set [2] of 16 µM.

On to `C=C(NCC)NC(=O)Nc1c(CC)cccc1CC`, for which the IC50 is 2.3 µM in data set [4]; 0.23 µM in data set [5]; more than 30 µM in data set [11]; 8.4 µM in data set [12]; 3.8 µM in data set [13]. Besides, the MIC90 in [1] was determined as 3.1 µM (≈ 0.81 µg/mL). Further, the Papp in [6] came out at 4 ×10⁻⁶ cm/s. Moreover, the CC50 in [7] and in data set [8] was more than 30 µM each time. The logD in data set [9] is 1.09. The same molecule came in with a solubility in [10] of more than 1000 µg/mL.

On to `CCNc1cc(C)cc(Nc2c(CC)cccc2CC)n1`, for which the MIC90 in [1] came out at 22 µM (≈ 6.24 µg/mL). The molecule further showed an IC50 in [2] of 6.4 µM.

`CCNc1ccc(C(F)(F)F)c(Nc2c(CC)cccc2CC)n1`: in data set [1], the MIC90 worked out at 43 µM (≈ 14.5 µg/mL). In addition, the IC50 in data set [2] is 30 µM; in data set [3] it was more than 100 µM; in [11], more than 30 µM; in [12], 15 µM; in data set [13], 14 µM.

Regarding `CCc1cccc(CC)c1Nc1cccc(NC)n1`, the MIC90 in data set [1] was determined as 42 µM (≈ 10.7 µg/mL). For the same molecule, the IC50 was 20 µM in [2], 7.5 µM in data set [11], less than 3 µM in data set [12] and 3.8 µM in data set [13].

Regarding `CCNc1cccc(Nc2c(CC(F)(F)F)cccc2CC(F)(F)F)n1`, in data set [1], the MIC90 was more than 100 µM. Moreover, the IC50 in [2] is more than 100 µM; in data set [3] it was 1.3 µM.

In the case of `CCNc1cccc(Nc2c(C(C)C)cccc2C(C)C)n1`, the MIC90 in [1] is more than 100 µM. Besides, the IC50 in data set [3] is more than 100 µM.

For the molecule `CCc1cccc(CC)c1Nc1cccc(NC(C)C)n1`, in [1], the MIC90 was 32 µM (≈ 9.07 µg/mL). Also, the IC50 in data set [2] and in data set [3] was more than 100 µM throughout.

In the case of `CCNC1=N/C(=N/c2c(Cl)cccc2Cl)CN1`, the half-maximal inhibitory concentration (IC50) in data set [11], in [12] and in data set [13] was more than 30 µM each time.

With `CCNc1ccc(C)c(Nc2c(CC)cccc2CC)n1`, in [1], the MIC90 turned out to be 55 µM (≈ 15.6 µg/mL). In addition, the half-inhibitory concentration (IC50) in data set [2] was 1.8 µM.

Turning to `CCNc1ccc(Cl)c(Nc2c(CC)cccc2CC)n1`, the MIC90 in [1] is more than 100 µM. Besides, the IC50 in data set [2] was more than 100 µM.

`CCNc1cccc(Nc2c(CC)cc(C(=O)NC)cc2CC)n1`: the MIC90 in [1] is 69 µM (≈ 22.5 µg/mL). In data set [3], this molecule registered an IC50 of 3.3 µM.

`CCc1cccc(CC)c1/N=C1\CNC(=N)N1CC` registered an IC50 in data set [2] of 84 µM.

With `CCNc1cccc(Nc2c(CC)cc(S(=O)(=O)NCC)cc2CC)n1`, the MIC90 in [1] was more than 100 µM. The molecule further gave an IC50 in [3] of 1 µM.

As for `CCc1cccc(CC)c1Nc1cccc(NC(C)=O)n1`, the MIC90 in data set [1] came to 62 µM (≈ 17.6 µg/mL). Further, the IC50 in data set [2] and in data set [3] was more than 100 µM each time.

As for `CCNc1ccc(F)c(Nc2c(CC)cccc2CC)n1`, the MIC90 in [1] is more than 100 µM. Also, in [2], the IC50 was found to be 12 µM.

For `CCNc1nc(Nc2c(CC)cccc2CC)ccc1F`, the MIC90 in [1] was more than 100 µM. In addition, half-maximal inhibition in data set [2] (IC50) was put at 7.2 µM.

In the case of `CCNc1cccc(Nc2c(CC)cccc2CC)n1`, in data set [1], the MIC90 stood at 42 µM (≈ 11.3 µg/mL). For the same molecule, the IC50 amounted to 3.3 µM in data set [2]; 0.71 µM in [3]; 11 µM in data set [11]; 8.1 µM in [12]; 6.9 µM in data set [13].

As for `CCNc1nc(Nc2c(CC)cccc2CC)ccc1C`, in [1], the MIC90 amounted to 54 µM (≈ 15.3 µg/mL). The IC50 in [2] turned out to be 23 µM.

Consider `CCNc1cccc(Nc2c(C3CC3)cccc2C2CC2)n1`, for which, in data set [1], the MIC90 was found to be 22 µM (≈ 6.46 µg/mL). This molecule also had an IC50 in data set [2] of 8.4 µM.

Take `CCNc1cc(OC)cc(Nc2c(CC)cccc2CC)n1`: the MIC90 in [1] was found to be 16 µM (≈ 4.79 µg/mL). Besides, the IC50 was determined as 0.72 µM in data set [2]; 5 µM in data set [3]; 5.7 µM in [11]; 3.4 µM in [12]; 3.7 µM in data set [13].
